The source of these data is the METLIN SMRT retention time set (Domingo-Almenara et al. 2019).

Molecules are shown by their SMILES.

This data set is described as follows: gradient 5% acetonitrile 3 min, to 50% in 2 min, to 85% in 15 min, held 3 min, 100 µL/min. The note with it: column: Zorbax Extend-C18 2.1 x 50 mm; eluents: water / acetonitrile, 0.1% formic acid. The essentials: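 Mixtures of ~100 pure standards were chromatographed on a Zorbax Extend-C18 column (2.1 × 50 mm, 1.8 μm) at 100 μL/min using water and acetonitrile, each with 0.1% formic acid. Detection used a quadrupole time-of-flight mass spectrometer in positive and negative ionization mode, and data collection spanned 3 months. Retention time was obtained from adduct peaks picked computationally and each checked manually.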
In turn, `CCCN1C(=O)c2cc(S(=O)(=O)N3CCOCC3)ccc2Oc2cccnc21` returned an RP-LC retention time of 926 s. To `O=C(NCCc1c[nH]c2ccccc12)C(=O)Nc1ccc2c(c1)OCCO2` belongs 825 s. The same measure for `CCc1nnc2nc(N3CCN(C(=O)c4ccc(N(C)C)cc4)CC3)cc(C)n12`: 609 s; for `CN1C(=O)c2cccnc2Sc2cc(NC(=O)C3CCOC3)ccc21` (centres undefined): 619 s. To `C=C1C(=O)[C@]23[C@H](O)[C@H]1CC[C@H]2[C@@]12CO[C@]3(O)[C@@H](O)[C@@H]1C(C)(C)CC[C@@H]2O` belongs 794 s. With `CCCN1C(=O)c2cc(S(=O)(=O)Nc3ccc(OC)cc3)ccc2Oc2cccnc21`, the RP-LC retention time came to 1030 s. As for `Cc1noc(C2CN(C(=O)Nc3cccc(Cl)c3F)CC23CCOCC3)n1` (centres undefined), the RP-LC retention time was found to be 783 s. Compound `Cc1ccc(-c2nc(NC(=O)C(C)C)sc2C)cc1` had an RP-LC retention time of 1010 s. To `Fc1ccc(CN2CCC[C@H]2c2nc(C3CCOCC3)n[nH]2)c(Cl)c1` belongs 586 s; to `O=S(=O)(c1ccc(Cl)cc1)N1CCC2(CC1)NCCN=C2NCc1ccccc1F`, 730 s; to `Cc1ccc(N2C(=O)C3N=NN(Cc4nc(-c5ccccc5Br)no4)C3C2=O)cc1F` (centres undefined), 1010 s. With `O=C(NCC1CCCO1)NC1CC(=O)N(c2ccc(Cl)cc2)C1` (centres undefined), the RP-LC retention time was 634 s.

`CCN(Cc1ccccc1)Cc1nc(-c2ccc(N3CCCC(C)C3)nc2)no1` (centres undefined) had an RP-LC retention time of 1020 s. To `NC(=O)C1CCN(C(=O)c2cc(-c3ccccc3Cl)on2)CC1` belongs 674 s; to `Cc1cc(OCC(=O)N(C)c2ccccc2)nc(N2CCN(c3ccccc3)CC2)n1`, 859 s. `COc1ccc(NC(=O)N2CCC(n3c(CC(C)C)nc4cccnc43)CC2)c(OC)c1` came in with an RP-LC retention time of 676 s. The same measure for `CN(C)S(=O)(=O)c1ccc(NC(=O)Cc2ccc(F)cc2)cc1`: 780 s; for `COCCNC(=O)N1CCCN(C2=NS(=O)(=O)C(c3cccc(Cl)c3)=C2C)CC1`: 706 s; for `O=C(Cn1nc2c3cc(-c4ccc(Cl)cc4)nn3ccn2c1=O)NC1CCCC1`: 1110 s.

`Cc1cccc(NC(=O)N2CCc3c(c(-c4nnc(-c5ccccc5Cl)o4)nn3C)C2)c1` registered an RP-LC retention time of 902 s. To `CCNC(=O)N1CCCC(c2cccc(C(=O)NCc3ccc(C(F)(F)F)cc3)c2)C1` (centres undefined) belongs 896 s. For the compound `CCc1ccc(-c2cc3c(=O)n(CC(O)c4ccccc4OC)ccn3n2)cc1` (centres undefined), the RP-LC retention time stood at 790 s. The same measure for `CN(CC1CCOCC1)S(=O)(=O)c1cccc(C(F)(F)F)c1`: 906 s.

Consider `O=C(NCCc1c[nH]c2ccc(Cl)cc12)c1cccc(NC(=O)c2nnc(C3CC3)s2)c1`, for which the RP-LC retention time stood at 928 s. Turning to `CN(Cc1ccccc1)C(=O)CC(=O)Nc1ccc2nc3n(c(=O)c2c1)CCCCC3`, the RP-LC retention time was 702 s. To `CCNc1cc(N2CCC(CCC(=O)Nc3ccc(OC)cc3OC)CC2)ncn1` belongs 665 s. `CC(NCC(O)COCCOc1ccc(F)cc1)c1ccccc1` (centres undefined) yielded an RP-LC retention time of 595 s.

Compound `COc1ccc(-c2nnc(-c3ccc(C)c(S(=O)(=O)N4CCOCC4)c3)o2)cc1OC` yielded an RP-LC retention time of 844 s. Regarding `CC(=O)N1CCC(CC(=O)N(C)CC2(C)CCOCC2)CC1`, the RP-LC retention time came to 594 s.

The compound `COc1ccccc1NC(=O)N1CCCC(Cn2cnc3cccnc32)C1` (centres undefined) showed an RP-LC retention time of 667 s.

As for `CC(C)OCCCNC(=O)CCc1nnc2c3cc(-c4ccccc4)nn3ccn12`, the RP-LC retention time worked out at 690 s. To `COC1C(=O)N(CC2CC2)C12CCN(C(=O)C(C)C)CC2` (centres undefined) belongs 686 s. In turn, `Cc1nnc(-c2ccc3ccn(CC(=O)N4CCN(Cc5ccc6c(c5)OCO6)CC4)c3c2)o1` came in with an RP-LC retention time of 651 s. To `Cn1nc(C2CCN(S(=O)(=O)c3cc(F)cc(F)c3)CC2)n(C2CCCC2)c1=O` belongs 893 s; to `Cc1ccc(N2CCN(c3nccn4c(=O)n(CC(=O)Nc5ccc(C)c(C)c5)nc34)CC2)cc1`, 1000 s. Take `Cn1cnc2c(C(=O)NCCC3=CCCCC3)nn(-c3ccc(Cl)cc3)c2c1=O`: the RP-LC retention time amounted to 959 s. To `CCN(CC)c1ccc(NS(=O)(=O)c2cc(-c3nc(C)cs3)sc2C)c(C)c1` belongs 750 s; to `CCN1C(=O)COc2ccc(-c3noc(-c4cc(OC)cc(OC)c4)n3)cc21`, 1040 s; to `Cc1ccccc1CNC(=O)CC1CCN(C(=O)c2[nH]c(C)c(C(=O)OC(C)C)c2C)CC1`, 853 s. `Clc1ccc(-c2nc3ccc(Cl)cn3c2Nc2ccc3c(c2)OCCO3)cc1` displayed an RP-LC retention time of 915 s. Compound `CCCn1cc(CCNC(=O)c2ccnn2CC)c2cccnc21` returned an RP-LC retention time of 678 s.

`Cc1ccc(S(=O)(=O)N2CCN(CCc3cn(C)c4ncccc34)CC2)cc1`: the RP-LC retention time was determined as 632 s. The compound `Cc1nc(-c2noc(-c3cccnc3)n2)cn1CC(=O)N1CCc2ccccc21` displayed an RP-LC retention time of 714 s. The same measure for `COc1ccc(NC(=O)c2cn(-c3cc(N4CCCCC4)ncn3)cn2)cc1Cl`: 984 s. To `COc1cccc2c1OC1(C)CC2NC(=O)N1c1cccc(C(=O)O)c1` (centres undefined) belongs 645 s; to `O=c1ccc(-c2ccccc2Br)nn1Cc1nc(-c2ccc3c(c2)OCO3)no1`, 1040 s; to `COc1ccc(C2CN(S(=O)(=O)c3ccccc3F)CCN2C)cc1` (centres undefined), 670 s. The same measure for `CCOc1ccccc1NC(=O)C1CCN(S(=O)(=O)c2ccc3c(c2)sc(=O)n3C)CC1`: 931 s.

Regarding `CN(C)c1nc2cc(C(=O)N3CCCCC3)sc2n1-c1ccccc1`, the RP-LC retention time came out at 679 s. The same measure for `CCN(CC)CCNC(=O)C1CCCN(c2ccc(Sc3ccc(Br)cc3)nn2)C1` (centres undefined): 664 s; for `Cc1cc(C)n2nc(SCC(=O)Nc3ccccc3[N+](=O)[O-])nc2n1`: 686 s; for `Cc1ccc(NS(=O)(=O)c2ccc(-c3c(C)noc3C)cc2)c(C)c1`: 985 s. In the case of `CCn1c(C)c(CN2CCC(C(=O)NCc3cccc(Cl)c3)CC2)c2ccccc21`, the RP-LC retention time amounted to 772 s.

On to `COc1cc(C2Oc3ccc(C4Oc5cc(O)cc(O)c5C(=O)C4O)cc3OC2CO)ccc1O` (centres undefined), for which the RP-LC retention time is 685 s.

Compound `O=C(NCc1ccccc1)C1CCN(Cc2nncn2-c2ccccc2F)CC1` registered an RP-LC retention time of 570 s.

For the compound `COc1ccccc1NC(=O)Cn1ccc2ccc(-c3nnc(C)o3)cc21`, the RP-LC retention time was determined as 811 s. On to `COc1cc(/C=C(\OC(C)=O)c2ccc3c(c2)OCO3)cc(OC)c1OC`, for which the RP-LC retention time stood at 924 s. To `COc1ccc(CCNC(=O)Cn2ccc3ccc(-c4nnc(C)o4)cc32)cc1OC` belongs 715 s. The same measure for `Cc1c(C(=O)N2CCSCC2)cnn1-c1ccc(-c2nc(C(C)(C)C)no2)cn1`: 1070 s; for `CCOc1ccc(Cc2nc(-c3ccc4oc(C)nc4c3)no2)cc1`: 1250 s. With `Cc1ccsc1CN1CCc2[nH]nc(C(=O)N3CCOCC3)c2C1`, the RP-LC retention time was determined as 568 s. The same measure for `COC(=O)c1ccccc1NC(=O)CSc1nnc2c3cc(-c4ccc(F)cc4)nn3ccn12`: 957 s. The same measure for `Cc1ccccc1NC(=O)N1CCC(c2cc(N)on2)CC1`: 644 s; for `COc1ccc(NC(=O)N2CCN(Cc3nc4ccccc4o3)CC2)cc1`: 642 s. `O=C(NC1CCCCCCC1)C1CCN(Cc2cc3ccccc3n2Cc2cccc(Cl)c2)CC1` gave an RP-LC retention time of 930 s. The same measure for `CC(=O)c1ccc(NC(=O)COc2cc(C)nc(N3CCCCCC3)n2)cc1`: 642 s. To `Cc1nc2cccnc2n1C1CCN(C(=O)Nc2ccccc2Cl)CC1` belongs 635 s. In the case of `CC(C)n1cnc(S(=O)(=O)N2CCCC(C(=O)NCc3ccc(Cl)cc3)C2)c1` (centres undefined), the RP-LC retention time was 799 s. Consider `Cc1ccn2c(NC(=O)C(C)(C)C)c(-c3ccc(F)cc3)nc2c1`, for which the RP-LC retention time turned out to be 648 s. Take `Cn1ccc2ccn(CC(=O)NCc3ccccc3Br)c(=O)c21`: the RP-LC retention time worked out at 778 s.

Compound `O=C(Nc1cccc(-c2ccc(N3CCOCC3)nn2)c1)Nc1ccccc1F` yielded an RP-LC retention time of 688 s. The same measure for `CN(C)CC1(O)CCC2(CCN(C(=O)c3ccoc3)CC2)CC1`: 570 s; for `Cc1c(S(=O)(=O)NCc2ccc3c(c2)CCN3C(=O)CC(C)C)cnn1C(F)F`: 911 s; for `CC(C)c1noc(-c2ccnc(-n3cnc(C(=O)N4CCCC4)c3)c2)n1`: 616 s. Take `Cc1ccc(N2CC(c3nc(-c4ccc(Cl)cc4)no3)CC2=O)cc1` (centres undefined): the RP-LC retention time was 1010 s. With `Cc1ccccc1CNC(=O)CN1CCN(Cc2cccc(Cl)c2)C1=O`, the RP-LC retention time turned out to be 880 s. In turn, `O=C(O)c1cc2cc(Cl)ccc2[nH]1` returned an RP-LC retention time of 740 s. To `COC(=O)c1cccc(C(=O)Nc2cccc(C)c2C)n1` belongs 899 s. To `Cc1cc2nn(CC(=O)NCc3ccccc3)c(=O)n2c(Nc2ccccc2C)n1` belongs 990 s.
